Data on 31 compounds can be found in patent US20230159469A1, “NOVEL PHTHALAZINE DERIVATIVE HAVING ECTONUCLOEOTIDE PYROPHOSPHATASE/PHOSPHODIESTE RASE INHIBITORY ACTIVITY, AND USE THEREOF” (TXINNO BIOSCIENCE INC., priority 2020, published 2023).

Where a name gives a salt, the structure may show the parent alone.

In the experiment the target is T1, human recombinant ENPP1 (Homo sapiens, UniProt P22413).
T1 construct: purchased R & D systems
T1 sequence (P22413 1-925): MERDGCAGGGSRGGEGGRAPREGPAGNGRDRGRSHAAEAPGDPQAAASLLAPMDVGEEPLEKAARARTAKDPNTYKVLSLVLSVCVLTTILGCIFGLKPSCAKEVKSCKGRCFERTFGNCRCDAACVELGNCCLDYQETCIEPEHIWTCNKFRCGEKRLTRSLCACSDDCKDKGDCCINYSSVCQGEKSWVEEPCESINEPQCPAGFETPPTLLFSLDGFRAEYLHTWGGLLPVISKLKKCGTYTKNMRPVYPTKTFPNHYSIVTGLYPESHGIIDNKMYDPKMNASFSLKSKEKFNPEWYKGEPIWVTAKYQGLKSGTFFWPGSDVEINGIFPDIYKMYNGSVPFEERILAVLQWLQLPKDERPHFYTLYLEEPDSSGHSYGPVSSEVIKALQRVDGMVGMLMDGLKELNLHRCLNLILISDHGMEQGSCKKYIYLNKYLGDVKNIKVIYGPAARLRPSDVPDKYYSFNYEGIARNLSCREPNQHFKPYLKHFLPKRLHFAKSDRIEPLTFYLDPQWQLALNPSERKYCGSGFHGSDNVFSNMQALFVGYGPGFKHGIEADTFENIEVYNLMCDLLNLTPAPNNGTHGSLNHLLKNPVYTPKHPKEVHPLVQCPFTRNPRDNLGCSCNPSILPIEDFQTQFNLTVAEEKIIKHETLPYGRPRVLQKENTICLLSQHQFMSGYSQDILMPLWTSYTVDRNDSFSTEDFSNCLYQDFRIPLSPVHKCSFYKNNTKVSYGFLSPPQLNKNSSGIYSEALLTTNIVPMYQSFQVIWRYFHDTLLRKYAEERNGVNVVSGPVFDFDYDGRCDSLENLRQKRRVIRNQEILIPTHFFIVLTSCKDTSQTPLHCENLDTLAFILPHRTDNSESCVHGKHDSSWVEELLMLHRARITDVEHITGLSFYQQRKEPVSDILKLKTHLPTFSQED
In words: ENPP1 enzyme assay with cGAMP substrate (AMP-Glo luminescence). Format: biochemical. The conditions noted are these: human recombinant ENPP1 3 ng/reaction, cGAMP 5 μM, 37° C. 90 minutes, read-out: Enzymatic activity (ENPP1 IC50). In outline: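 Human ENPP1 hydrolysis of 5 μM cGAMP was run for 90 min at 37° C in 50 mM Tris pH 8.5, 250 mM NaCl, 0.5 mM CaCl2, 1 μM ZnCl2, 5% glycerol, 1% DMSO. AMP product was quantified by AMP-Glo luminescence; IC50 came from 3-parameter fits of % residual activity, averaged over at least two runs.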

By IC50 is commonly meant the concentration needed to halve the response being measured. `COc1cc2c(Cc3ccc4c(c3)CCN4)n[nH]c(=O)c2cc1OC` [Example 165, 4-(indolin-5-yl-methyl)-6,7-dimethoxyphthalazin-1(2H)-one hydrochloride]: the IC50 was over 10 µM.

Consider `COc1cc2c(Cc3ccc4c(c3)CCN4)nn(C)c(=O)c2cc1OC` [Example 166, 4-(indolin-5-yl-methyl)-6,7-dimethoxy-2-methylphthalazin-1(2H)-one hydrochloride], for which the IC50 is over 10 µM.

Take `COc1cc2c(Cc3cccc(NS(=O)(=O)NC(=O)OC(C)(C)C)c3)n[nH]c(=O)c2cc1OC` [Example 167, tert-butyl (N-(3-((6,7-dimethoxy-4-oxo-3,4-dihydrophthalazin-1-yl)methyl)phenyl)sulfamoyl)carbamate]: the IC50 was over 10 µM.

Consider `COc1cc2c(Cc3cccc(NS(=O)(=O)NC(=O)OC(C)(C)C)c3)nn(C)c(=O)c2cc1OC` [Example 168, tert-butyl (N-(3-((6,7-dimethoxy-3-methyl-4-oxo-3,4-dihydrophthalazin-1-yl)methyl)phenyl)sulfamoyl)carbamate], for which the IC50 is over 10 µM.

For the compound `CC(C)(C)OC(=O)NS(=O)(=O)Nc1ccc(Cc2n[nH]c(=O)c3ccccc23)cc1` [Example 169, tert-butyl (N-(4-((4-oxo-3,4-dihydrophthalazin-1-yl)methyl)phenyl)sulfamoyl)carbamate], the IC50 lay in the range of 1 to 10 µM.

Regarding `Cn1nc(Cc2ccc(NS(=O)(=O)NC(=O)OC(C)(C)C)cc2)c2ccccc2c1=O` [Example 170, tert-butyl (N-(4-((3-methyl-4-oxo-3,4-dihydrophthalazin-1-yl)methyl)phenyl)sulfamoyl)carbamate], the IC50 is over 10 µM.

Consider `COc1cc2c(Cc3ccc(NS(=O)(=O)NC(=O)OC(C)(C)C)cc3)n[nH]c(=O)c2cc1OC` [Example 171, tert-butyl (N-(4-((6,7-dimethoxy-4-oxo-3,4-dihydrophthalazin-1-yl)methyl)phenyl)sulfamoyl)carbamate], for which the IC50 was over 10 µM.

Turning to `COc1cc2c(Cc3ccc(NS(=O)(=O)NC(=O)OC(C)(C)C)cc3)nn(C)c(=O)c2cc1OC` [Example 172, tert-butyl (N-(4-((6,7-dimethoxy-3-methyl-4-oxo-3,4-dihydrophthalazin-1-yl)methyl)phenyl)sulfamoyl)carbamate], the IC50 lay within 1 to 10 µM.

Turning to `CN(c1ccc(Cc2n[nH]c(=O)c3ccccc23)cc1)S(=O)(=O)NC(=O)OC(C)(C)C` [Example 173, tert-butyl N-methyl-N-(4-((4-oxo-3,4-dihydrophthalazin-1-yl)methyl)phenyl)sulfamoyl carbamate], the IC50 is over 10 µM.

In the case of `COc1cc2c(Cc3ccc(N(C)S(=O)(=O)NC(=O)OC(C)(C)C)cc3)n[nH]c(=O)c2cc1OC` [Example 174, tert-butyl N-(4-((6,7-dimethoxy-4-oxo-3,4-dihydrophthalazin-1-yl)methyl)phenyl)-N-methylsulfamoyl carbamate], the IC50 is over 10 µM.

For `COc1cc2c(Cc3ccc4c(c3)CCN4S(=O)(=O)NC(=O)OC(C)(C)C)n[nH]c(=O)c2cc1OC` [Example 176, tert-butyl (5-((6,7-dimethoxy-4-oxo-3,4-dihydrophthalazin-1-yl)methyl)indolin-1-yl)sulfonyl carbamate], the IC50 was over 10 µM.

Take `COc1cc2c(Cc3ccc4c(c3)CCN4S(=O)(=O)NC(=O)OC(C)(C)C)nn(C)c(=O)c2cc1OC` [Example 177, tert-butyl (5-((6,7-dimethoxy-3-methyl-4-oxo-3,4-dihydrophthalazin-1-yl)methyl)indolin-1-yl)sulfonyl carbamate]: the IC50 was over 10 µM.

On to `COc1cc2c(Cc3cccc(NS(N)(=O)=O)c3)n[nH]c(=O)c2cc1OC` [Example 178, (N-(3-((6,7-dimethoxy-4-oxo-3,4-dihydrophthalazin-1-yl)methyl)phenyl)sulfamide hydrochloride], for which the IC50 was over 10 µM.

For `COc1cc2c(Cc3cccc(NS(N)(=O)=O)c3)nn(C)c(=O)c2cc1OC` [Example 179, N-(3-((6,7-dimethoxy-3-methyl-4-oxo-3,4-dihydrophthalazin-1-yl)methyl)phenyl)sulfamide hydrochloride], the 50% inhibitory concentration (IC50) is over 10 µM.

For `NS(=O)(=O)Nc1ccc(Cc2n[nH]c(=O)c3ccccc23)cc1` [Example 180, N-(4-((4-oxo-3,4-dihydrophthalazin-1-yl)methyl)phenyl)sulfamide hydrochloride], the IC50 was under 1 µM.

For the compound `Cn1nc(Cc2ccc(NS(N)(=O)=O)cc2)c2ccccc2c1=O` [Example 181, N-(4-((3-methyl-4-oxo-3,4-dihydrophthalazin-1-yl)methyl)phenyl)sulfamide hydrochloride], the IC50 is under 1 µM.

For the compound `COc1cc2c(Cc3ccc(NS(N)(=O)=O)cc3)n[nH]c(=O)c2cc1OC` [Example 182, N-(4-((6,7-dimethoxy-4-oxo-3,4-dihydrophthalazin-1-yl)methyl)phenyl)sulfamide hydrochloride], the IC50 was under 1 µM.

For the compound `COc1cc2c(Cc3ccc(NS(N)(=O)=O)cc3)nn(C)c(=O)c2cc1OC` [Example 183, N-(4-((6,7-dimethoxy-3-methyl-4-oxo-3,4-dihydrophthalazin-1-yl)methyl)phenyl)sulfamide hydrochloride], the IC50 was under 1 µM.

In the case of `CN(c1ccc(Cc2n[nH]c(=O)c3ccccc23)cc1)S(N)(=O)=O` [Example 184, N-methyl-N-(4-((4-oxo-3,4-dihydrophthalazin-1-yl)methyl)phenyl)sulfamide hydrochloride], the IC50 was in the range of 1 to 10 µM.

Take `COc1cc2c(Cc3ccc(N(C)S(N)(=O)=O)cc3)n[nH]c(=O)c2cc1OC` [Example 185, N-(4-((6,7-dimethoxy-4-oxo-3,4-dihydrophthalazin-1-yl)methyl)phenyl)-N-methylsulfamide hydrochloride]: the IC50 was under 1 µM.

On to `COc1cc2c(Cc3ccc(N(C)S(N)(=O)=O)cc3)nn(C)c(=O)c2cc1OC` [Example 186, N-(4-((6,7-dimethoxy-3-methyl-4-oxo-3,4-dihydrophthalazin-1-yl)methyl)phenyl)-N-methylsulfamide hydrochloride], for which the IC50 is under 1 µM.

As to `COc1cc2c(Cc3ccc4c(c3)CCN4S(N)(=O)=O)n[nH]c(=O)c2cc1OC` [Example 187, 5-((6,7-dimethoxy-4-oxo-3,4-dihydrophthalazin-1-yl)methyl)indoline-1-sulfonamide hydrochloride], the IC50 was under 1 µM.

For the compound `COc1cc2c(Cc3ccc4c(c3)CCN4S(N)(=O)=O)nn(C)c(=O)c2cc1OC` [Example 188, 5-((6,7-dimethoxy-3-methyl-4-oxo-3,4-dihydrophthalazin-1-yl)methyl)indoline-1-sulfonamide hydrochloride], the IC50 was under 1 µM.

As for `NS(=O)(=O)Nc1ccc(Cc2n[nH]c(=O)c3ccccc23)c(F)c1` [Example 189, N-(3-fluoro-4-((4-oxo-3,4-dihydrophthalazin-1-yl)methyl)phenyl)sulfamide hydrochloride], the IC50 was under 1 µM.

On to `NS(=O)(=O)Nc1ccc(Cc2n[nH]c(=O)c3ccccc23)cc1F` [Example 190, N-(2-fluoro-4-((4-oxo-3,4-dihydrophthalazin-1-yl)methyl)phenyl)sulfamide hydrochloride], for which the half-inhibitory concentration (IC50) is under 1 µM.

Consider `NS(=O)(=O)Nc1ccc(Cc2n[nH]c(=O)c3ccccc23)c(C(F)(F)F)c1` [Example 191, N-(3-(trifluorobenzylmethyl)-4-((4-oxo-3,4-dihydrophthalazin-1-yl)methyl)phenyl)sulfamide hydrochloride], for which the IC50 was under 1 µM.

On to `NS(=O)(=O)Nc1ccc(Cc2n[nH]c(=O)c3ccccc23)cc1C(F)(F)F` [Example 192, N-(2-(trifluorobenzylmethyl)-4-((4-oxo-3,4-dihydrophthalazin-1-yl)methyl)phenyl)sulfamide hydrochloride], for which the IC50 is under 1 µM.

With `COc1cc2c(Cc3cccc(Br)c3)n[nH]c(=O)c2cc1OC` [Example 193], the IC50 was over 10 µM.

With `COc1cc2c(Cc3ccc(Br)cc3)n[nH]c(=O)c2cc1OC` [Example 194, 4-(4-bromobenzyl)-6,7-dimethoxyphthalazin-1(2H)-one], the IC50 was over 10 µM.

In the case of `CS(=O)(=O)NCc1ccc(-c2n[nH]c(=O)c3ccccc23)cc1` [Example 195, N-(4-(4-oxo-3,4-dihydrophthalazin-1-yl)benzyl)methanesulfonamide], the IC50 was over 10 µM.

On to `O=c1[nH]nc(-c2ccc(CNS(=O)(=O)C3CC3)cc2)c2ccccc12` [Example 196, N -(4-(4-oxo-3,4-dihydrophthalazin-1-yl)benzyl)cyclopropanesulfonamide], for which the IC50 is over 10 µM.
